In BigSolDB 2.1:

## OC(Cn1cncn1)(Cn1cncn1)c1ccc(F)cc1F
In ethanol, 293.15 K
  solubility (mole fraction): 0.0105
In ethanol, 298.15 K
  solubility (mole fraction): 0.0123
In ethanol, 303.15 K
  solubility (mole fraction): 0.014
In ethanol, 308.15 K
  solubility (mole fraction): 0.0157
In ethanol, 313.15 K
  solubility (mole fraction): 0.0183
In ethanol, 318.15 K
  solubility (mole fraction): 0.023
In ethanol, 323.15 K
  solubility (mole fraction): 0.0282
In water, 293.15 K
  solubility (mole fraction): 7.76e-05
In water, 298.15 K
  solubility (mole fraction): 7.99e-05
In water, 303.15 K
  solubility (mole fraction): 8.28e-05
In water, 308.15 K
  solubility (mole fraction): 8.58e-05
In water, 313.15 K
  solubility (mole fraction): 9.06e-05
In water, 318.15 K
  solubility (mole fraction): 9.59e-05
In water, 323.15 K
  solubility (mole fraction): 0.000104
